In US20110288082A1, “METHODS AND COMPOSITIONS FOR INHIBITION OF THE TRANSITIONAL ENDOPLASMIC RETICULUM ATPASE” (priority 2010, published 2011):
Like-named read-outs stand apart in the source and are kept apart here.

How the values were obtained:
[1] = test system: p97-dependent Ub^G76V-GFP degradation in HeLa cells; experiment: Ub^G76V-GFP degradation (turn-over) assay; assay type: cell-based, human; conditions: Homo sapiens, HeLa
Protocol: Ub^G76V-GFP Degradation Assay
Two GFP images with 100 ms exposure time per well were acquired and the average GFP intensity per area of a HeLa cell was determined by using MetaXpress software. Mean GFP intensity of 300-500 cells was calculated using Excel. Normalized GFP intensity was calculated using the following formula: (Test compound−Background)/(Basal GFP intensity—Background). Where: Test compound is defined as Mean GFP intensity of Ub^G76V-GFP-expressing cells treated with the test compound. Background is defined as background GFP intensity of HeLa cells. Basal GFP intensity is defined as mean GFP intensity of Ub^G76V-GFP-expressing cells treated with DMSO. […] The percent of remaining k for each compound is calculated using the following formula: (Test compound/DMSO control)*100. Where: Test_compound is defined as k determined from wells containing test compound, DMSO control is defined as k determined from wells containing DMSO.

p97 = p97 (Homo sapiens, UniProt P55072); experiment: p97 ATPase assay (Kinase Glo Plus; biomol green for compounds that interfere with luciferase); assay type: biochemical
Protocol: Assay Buffer (20 μL of 2.5× concentration, where 1×=50 mM Tris pH 7.4, 20 mM MgCl2, 1 mM EDTA, 0.5 mM TCEP) was dispensed into each well of a 96 well plate. Purified p97 (25 μL of 50 μM) was diluted in 975 μL, of 1× Assay Buffer and 10 μL was dispensed in each well. Test compound (10 μL) or 5% DMSO (10 μL) was then added to each well and the plate was incubated at room temperature for 10 min. The ATPase assay was carried out by adding to each well 10 μL of 500 μM ATP (pH 7.5), incubating at room temperature for 60 min, and then adding 50 μL Kinase Glo Plus reagent (Promega) followed by a final 10 min incubation at room temperature in the dark. Luminescence was read on an Analyst AD (Molecular Devices). Compounds were assayed at a range of concentrations (0, 0.048, 0.24, 1.2, 6, 30 μM) in triplicate. The percent of remaining activity for each reaction was calculated using the following mathematical expression: ((Test Compound-High Control)/(Low Control-High Control))*100. Test_Compound is defined as wells containing test compound, Low_Control is defined as wells containing DMSO, High_Control is defined as wells containing no p97 protein. […] The result was expressed as mean +/− standard error. For assays with Myriad 12 and 19, 100 μL of biomol green reagent (Enzo Life Sciences) was added to each well instead of kinase Glo Plus (Promega) and absorbance at 630 nm was measured. This was done because these compounds interfered with luciferase activity. […]

[2] = read-out: IC50 (μM) Ub^G76V-GFP turn over, Ub^G76V-GFP-expressing HeLa cells, degradation rate constant k from 90 to 180 min, mean +/- standard error
[3] = purified p97, ATP, 60 min room temperature, mean +/- standard error
[4] = read-out: IC50 (μM) Ub^G76V-GFP turn over, p97-dependent Ub^G76V-GFP degradation turn-over assay

Chain of p97 (P55072 2-806 limits assumed): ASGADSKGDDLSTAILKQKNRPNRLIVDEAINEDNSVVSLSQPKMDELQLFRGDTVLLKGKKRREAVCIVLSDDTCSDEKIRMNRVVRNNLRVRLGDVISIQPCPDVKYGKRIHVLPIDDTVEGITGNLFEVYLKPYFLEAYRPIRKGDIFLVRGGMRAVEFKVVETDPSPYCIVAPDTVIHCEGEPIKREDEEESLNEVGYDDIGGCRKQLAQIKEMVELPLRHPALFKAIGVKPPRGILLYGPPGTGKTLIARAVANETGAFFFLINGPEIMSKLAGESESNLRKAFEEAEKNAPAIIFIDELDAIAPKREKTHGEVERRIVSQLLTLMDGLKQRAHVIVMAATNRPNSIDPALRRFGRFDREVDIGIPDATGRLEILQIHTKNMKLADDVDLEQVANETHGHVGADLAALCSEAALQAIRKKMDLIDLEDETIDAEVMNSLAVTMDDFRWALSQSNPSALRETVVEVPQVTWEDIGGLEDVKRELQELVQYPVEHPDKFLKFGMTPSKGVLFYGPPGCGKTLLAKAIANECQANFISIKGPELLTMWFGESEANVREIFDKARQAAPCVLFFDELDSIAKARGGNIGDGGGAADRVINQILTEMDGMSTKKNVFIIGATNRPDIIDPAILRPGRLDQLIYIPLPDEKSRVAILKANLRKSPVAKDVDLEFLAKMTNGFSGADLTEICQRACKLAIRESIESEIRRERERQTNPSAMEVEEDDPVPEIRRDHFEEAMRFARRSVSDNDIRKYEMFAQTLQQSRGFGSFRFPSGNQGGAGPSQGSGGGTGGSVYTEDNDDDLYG

Row | Structure (SMILES) | IC50 [1, 2] | IC50 (p97; [3]) | IC50 [1, 4] | IC50 (p97; p97 ATPase assay)
1 | c1ccc(CNc2nc(N3CCCc4ccccc43)nc3ccccc23)cc1 [VII-1] | 10 ± 2 µM | 4.4 ± 1.8 µM | – | –
2 | Cc1ccc(Nc2nc(NCc3ccccc3)c3ccccc3n2)cc1 [II-2] | 6.3 ± 1.4 µM | 2.2 ± 0.4 µM | – | –
3 | Cc1ccc(CNc2nc(Nc3cccc(Cl)c3)nc3ccccc23)cc1 [III-1] | 12 ± 2 µM | 1.4 ± 0.3 µM | – | –
4 | Nc1nc(CCl)nc(Nc2ccc(Cl)c(Cl)c2)n1 [XVII] | 5.7 ± 0.8 µM | 15 ± 4 µM | – | –
5 | COc1cccc2c(NCc3ccccc3)nc(NC(C)c3ccccc3)nc12 (stereo not shown) [XI-11] | 2.1 ± 0.7 µM | 12 ± 5 µM | – | –
6 | Cc1cccc(-c2nc(NCc3ccccc3)c3ccccc3n2)c1 [I-5] | 17 ± 4 µM | 4.2 ± 0.2 µM | – | –
7 | CC(C)Nc1nc(Nc2cccc(Cl)c2)nc2ccccc12 [XLII] | – | – | 11 ± 2 µM | > 30 µM
8 | COc1ccc(-c2cccc3c(NCc4ccccc4)nc(N4CCOc5ccccc54)nc23)cc1 [VII-11] | 9 ± 1 µM | 1.1 ± 0.1 µM | – | –
9 | Brc1ccc(CNc2nc(NCc3ccccc3)c3ccccc3n2)cc1 [IV-4] | 3.9 ± 0.3 µM | 4.3 ± 0.9 µM | – | –
10 | Clc1cc(Cl)cc(Nc2nc(NCc3ccccc3)c3ccccc3n2)c1 [II-19] | 13 ± 1 µM | 8.2 ± 0.3 µM | – | –
11 | COc1ccc(-c2nc(NCc3ccc(C)cc3)c3ccccc3n2)cc1 [I-21] | 12 ± 2 µM | 8 ± 2 µM | – | –
12 | CC(Nc1nc(N2CCOCC2)nc2ccccc12)c1ccccc1 (stereo not shown) [XLVI] | – | – | 36 ± 0.3 µM | 34 ± 10 µM
13 | Fc1ccc(CNc2nc(Nc3cccc(Cl)c3)nc3ccccc23)cc1 [III-3] | 5.7 ± 1.3 µM | 1.5 ± 0.3 µM | – | –
14 | c1ccc(CNc2nc(N3CCOc4ccccc43)nc3ccccc23)cc1 [VII-3] | 7 ± 1.9 µM | 0.6 ± 0.2 µM | – | –
15 | Cc1c(Cl)cccc1Nc1nc(NCc2ccccc2)c2ccccc2n1 [V-5] | 5.5 ± 1 µM | 0.7 ± 0.1 µM | – | –
16 | COc1cccc2c(NCc3ccccc3)nc(Nc3cc(C)cc(F)c3)nc12 [XI-18] | 7.1 ± 0.5 µM | 1.5 ± 0.2 µM | – | –
17 | COc1ccc(-c2nc(NCc3ccccc3)c3ccccc3n2)cc1 [I-9] | 15 ± 2 µM | 1.6 ± 0.3 µM | – | –
18 | COc1ccc(CNc2nc(Nc3cccc(Cl)c3)nc3ccccc23)cc1 [III-5] | 11 ± 4 µM | 2.3 ± 0.6 µM | – | –
19 | COc1cccc2c(NCc3ccccc3)nc(NCC3CCCCC3)nc12 [XI-13] | 4.2 ± 1 µM | 5.4 ± 0.9 µM | – | –
20 | Fc1ccc(CNc2nc(-c3ccccc3)nc3ccccc23)cc1 [I-13] | 19 ± 3 µM | 11 ± 3 µM | – | –
21 | Nc1nc(CCl)nc(N(c2ccccc2)c2ccccc2)n1 [XIII] | 10 ± 2 µM | 13 ± 5 µM | – | –
22 | Cc1ccc(Cl)cc1Nc1nc(NCc2ccccc2)c2ccccc2n1 [V-9] | 7 ± 1.5 µM | 0.8 ± 0.07 µM | – | –

Row | Structure (SMILES) | IC50 [1, 2] | IC50 (p97; [3]) | IC50 [1, 4] | IC50 (p97; p97 ATPase assay)
23 | COc1cccc2c(NCc3ccccc3)nc(-n3c(N)nc4cc(C)c(C)cc43)nc12 [XXI-1] | – | – | 89 ± 39 µM | 2 ± 0.4 µM
24 | COc1cccc(Nc2nc(NCc3ccccc3)c3ccccc3n2)c1 [II-16] | 4.3 ± 0.7 µM | 2.5 ± 0.2 µM | – | –
25 | COc1cccc2c(NCc3ccccc3)nc(N(C)c3ccccc3)nc12 [XI-9] | – | – | 9.2 ± 1.2 µM | > 30 µM
26 | Cc1ccc2c(NCc3ccccc3)nc(NCc3ccccc3)nc2c1 [VI-6] | 6.1 ± 1.6 µM | 2.2 ± 0.4 µM | – | –
27 | FC(F)(F)c1cccc(Nc2nc(NCc3ccccc3)c3ccccc3n2)c1 [II-20] | – | – | 21 ± 1 µM | 50 ± 16 µM
28 | COc1cccc2c(NCc3ccccc3N(C)C)nc(N3CCOc4ccccc43)nc12 [XII-9] | – | – | 4.5 ± 0.5 µM | 47 ± 22 µM
29 | COc1cccc2c(NCc3ccccc3)nc(NCc3cncs3)nc12 [XI-15] | 10 ± 3 µM | 11 ± 1 µM | – | –
30 | Cc1ccccc1CNc1nc(Nc2cccc(Cl)c2)nc2ccccc12 [III-6] | 11 ± 3 µM | 4.2 ± 1.1 µM | – | –
31 | Clc1cccc(Nc2nc(NCc3ccccc3Cl)c3ccccc3n2)c1 [III-7] | 18 ± 5 µM | 4.7 ± 1.4 µM | – | –
32 | Brc1cccc(Nc2nc(NCc3ccccc3)c3ccccc3n2)c1 [II-15] | 4.3 ± 0.8 µM | 2.5 ± 0.5 µM | – | –
33 | COc1cccc2c(NCC3CCCCC3)nc(N3CCOc4ccccc43)nc12 [XII-6] | 8.2 ± 1 µM | 7.4 ± 0.9 µM | – | –
34 | Clc1ccc2c(NCc3ccccc3)nc(NCc3ccccc3)nc2c1 [VI-12] | 6.3 ± 0.9 µM | 5.5 ± 0.9 µM | – | –
35 | COc1c(Cl)cccc1Nc1nc(NCc2ccccc2)c2ccccc2n1 [V-1] | 6.3 ± 1.7 µM | 0.9 ± 0.2 µM | – | –
36 | Nc1nc(CCl)nc(Nc2ccc(Oc3ccccc3)cc2)n1 [XV] | 3.7 ± 0.6 µM | 14 ± 5 µM | – | –
37 | COc1ccc(Nc2nc(N3CCN(S(=O)(=O)c4ccc(C)cc4)CC3)nc3ccccc23)cc1 [XLVIII] | – | – | 39 ± 18 µM | 22 ± 12 µM
38 | Clc1cccc(CNc2nc(NCc3ccccc3)c3ccccc3n2)c1 [IV-12] | 2.5 ± 0.4 µM | 2.7 ± 0.1 µM | – | –
39 | COc1cccc2c(NCc3cccs3)nc(N3CCOc4ccccc43)nc12 [XII-5] | 3 ± 0.6 µM | 1.2 ± 0.2 µM | – | –
40 | Cc1ccccc1Nc1nc(NCc2ccccc2)c2ccccc2n1 [II-7] | 10 ± 2 µM | 3.4 ± 1.5 µM | – | –
41 | Clc1ccccc1-c1nc(N2CCCc3ccccc32)c2ccccc2n1 [XXIV] | – | – | 11 ± 0.8 µM | > 30 µM
42 | Cc1c(F)cccc1Nc1nc(NCc2ccccc2)c2ccccc2n1 [V-2] | 3.7 ± 0.8 µM | 0.9 ± 0.1 µM | – | –
43 | COc1cccc2c(NCc3ccccc3)nc(N3CCc4ccccc4C3)nc12 [XI-8] | 7 ± 1.3 µM | 15 ± 3 µM | – | –
44 | CN(Cc1ccccc1)c1nc(-c2ccccc2[N+](=O)[O-])nc2ccccc12 [Cpd I-27] | – | – | 11 ± 6 µM | 25 ± 11 µM

Row | Structure (SMILES) | IC50 [1, 2] | IC50 (p97; [3]) | IC50 [1, 4] | IC50 (p97; p97 ATPase assay)
45 | Clc1ccc(CNc2nc(-c3ccccc3)nc3ccccc23)cc1 [Cpd I-15] | – | – | 15 ± 3 µM | > 30 µM
46 | COc1ccc2c(NCc3ccccc3)nc(NCc3ccccc3)nc2c1 [VI-13] | 42 ± 6 µM | 5.7 ± 1 µM | – | –
47 | Clc1ccc(-c2nc(NCc3ccccc3)c3ccccc3n2)cc1Cl [I-11] | 37 ± 6 µM | 7.1 ± 0.4 µM | – | –
48 | c1ccc(CNc2nc(N3CCOc4ccccc43)nc3c(-c4ccccc4)cccc23)cc1 [VII-8] | 5 ± 0.9 µM | 3.5 ± 0.6 µM | – | –
49 | Clc1cccc(Nc2nc(NCc3ccc(Br)cc3)c3ccccc3n2)c1 [III-4] | 10 ± 3 µM | 7.4 ± 2 µM | – | –
50 | COc1cccc2c(NCc3ccccc3)nc(N3CCN(C)CC3)nc12 [XI-4] | – | – | 45 ± 18 µM | > 30 µM
51 | COc1cccc2c(NCc3ccccc3)nc(N3CCOc4ccccc43)nc12 [VII-6] | 3.3 ± 0.4 µM | 0.2 ± 0.02 µM | – | –
52 | COc1c(F)cccc1Nc1nc(NCc2ccccc2)c2ccccc2n1 [V-4] | 12 ± 3 µM | 1.7 ± 0.5 µM | – | –
53 | Clc1ccc2nc(NCc3ccccc3)nc(NCc3ccccc3)c2c1 [VI-3] | 6.6 ± 0.9 µM | 1.6 ± 0.4 µM | – | –
54 | Fc1cccc2c(NCc3ccccc3)nc(NCc3ccccc3)nc12 [VI-10] | 18 ± 2 µM | 3.1 ± 0.5 µM | – | –
55 | Fc1cccc2nc(NCc3ccccc3)nc(NCc3ccccc3)c12 [VI-2] | 13 ± 2 µM | 1.2 ± 0.3 µM | – | –
56 | Cc1cccc(CNc2nc(Nc3cccc(Cl)c3)nc3ccccc23)c1 [III-11] | 9.7 ± 2.7 µM | 2.3 ± 0.6 µM | – | –
57 | Clc1ccc(CNc2nc(NCc3ccccc3)c3ccccc3n2)cc1 [IV-2] | 2.1 ± 0.4 µM | 3.1 ± 0.2 µM | – | –
58 | COc1ccc(-c2nc(NCc3ccccc3)c3ccc(Cl)cc3n2)cc1 [I-34] | – | – | 70 ± 30 µM | 25 ± 11 µM
59 | COc1cccc2c(NCc3ccccc3)nc(N3CCN(C(C)=O)c4ccccc43)nc12 [VII-13] | 8 ± 1 µM | 2.7 ± 0.6 µM | – | –
60 | COc1cccc2c(NCc3ccc(F)cc3)nc(N3CCOc4ccccc43)nc12 [XII-4] | 3.7 ± 0.6 µM | 1.9 ± 0.4 µM | – | –
61 | CCN(CC)CCOc1cccc2c(NCc3ccccc3)nc(N3CCOc4ccccc43)nc12 [VII-10] | 5.3 ± 0.6 µM | 0.4 ± 0.08 µM | – | –
62 | Cc1c(Cl)cccc1Nc1nc(N)nc(CCl)n1 [XVI] | 5.9 ± 1 µM | 18 ± 8 µM | – | –
63 | COc1cccc2c(NCc3ccccc3)nc(-n3cnc4ccccc43)nc12 [XI-1] | 78 ± 45 µM | 3.3 ± 1.1 µM | – | –
64 | COc1cccc2c(NCc3ccc(O)cc3)nc(N3CCOc4ccccc43)nc12 [XII-10] | 7.3 ± 1 µM | 2.4 ± 0.5 µM | – | –
65 | Oc1cccc2c(NCc3ccccc3)nc(N3CCOc4ccccc43)nc12 [VII-7] | 7.7 ± 1.7 µM | 1.2 ± 0.3 µM | – | –
